# Laboratory results as given in article PMC5967629 (Bioorganic & medicinal chemistry, 2018).
# Columns and labels:
# [1] = system: Parental SK-OV-3; experiment: SRB assay in parental SK-OV-3 cells; assay type: cell-based; conditions: Homo sapiens, SK-OV-3, read-out: IC50 ± SD Parental SK-OV-3
# [2] = system: MDA-MB-435 cancer cells; experiment: SRB antiproliferative assay in MDA-MB-435 cells; assay type: cell-based; conditions: for antiproliferative activity (in words): MDA-MB-435 cells, Table 2; for fold less potent than 1 in MDA-MB-435 cells: relative to IC50 of 1
# [3] = Metabolite identification of 3 in human liver microsomes; assay type: in vitro ADME; conditions: 3 at 20 μM incubated with human liver microsomes
# [4] = system: A-10 cells; assay type: cell-based; conditions: for microtubule depolymerization activity (in words): A-10 cells, Table 2
compound,measurement,setting,value
COc1ccc(N(C)c2nc(C)nc3c2CCC3)cc1 [Compound 1],IC50,[1],11.3 ± 0.2 nM
same,IC50,"[2]; Homo sapiens, MDA-MB-435, read-out: IC50 ± SD (MDA-MB-435) Cancer cells",7 ± 0.7 nM
"Cc1nc2c(c(N(C)c3ccc(O)cc3)n1)CCC2 [Compound 2, N-(4-Hydroxylphenyl)-N,2-dimethyl-6,7-dihydro-5H-cyclopenta[d]pyrimidin-4-amine]",antiproliferative activity (in words),[2],low activity
"CSc1ccc(N(C)c2nc(C)nc3c2CCC3)cc1 [Compound 3, N-(4-Methiophenyl)-N,2-dimethyl-6,7-dihydro-5H-cyclopenta[d]pyrimidin-4-amine]","MS Peak Area in 60 min sample, HPLC area",[3],"2,061,000"
"Cc1nc2c(c(N(C)c3ccc([S+](C)[O-])cc3)n1)CCC2 (stereo not shown) [Compound 5, N-(4-Methylsulfinylphenyl)-N,2-dimethyl-6,7-dihydro-5H-cyclopenta[d]pyrimidin-4-amine]","MS Peak Area in 60 min sample, HPLC area",[3],"2,199,500"
"Cc1nc2c(c(N(C)c3ccc(S(C)(=O)=O)cc3)n1)CCC2 [Compound 6, N-(4-Methylsulfonylphenyl)-N,2-dimethyl-6,7-dihydro-5H-cyclopenta[d]pyrimidin-4-amine]",microtubule depolymerization activity (in words),[4],inactive
same,"MS Peak Area in 60 min sample, HPLC area",[3],"98,900"
"CNc1ccc(N(C)c2nc(C)nc3c2CCC3)cc1 [Compound 7, N-(4-Methylaminophenyl)-N,2-dimethyl-6,7-dihydro-5H-cyclopenta[d]pyrimidin-4-amine]",fold less potent than 1 in MDA-MB-435 cells,[2],2.9 fold
"Cc1nc2c(c(N(C)c3ccc(N)cc3)n1)CCC2 [Compound 8, N-(4-Aminophenyl)-N,2-dimethyl-6,7-dihydro-5H-cyclopenta[d]pyrimidin-4-amine]",antiproliferative activity (in words),[2],low activity
"Cc1nc2c(c(N(C)c3ccc4c(c3)CCO4)n1)CCC2 [Compound 9, N-(2,3-Dihydrobenzofuran-5-yl)-N,2-dimethyl-6,7-dihydro-5H-cyclopenta[d]pyrimidin-4-amine]",fold less potent than 1 in MDA-MB-435 cells,[2],1.7 fold
"COc1ccc(N(C)c2nc(C)nc3c2CCC3)cc1C [Compound 10, N-(3-Methyl-4-methoxylphenyl)-N,2-dimethyl-6,7-dihydro-5H-cyclopenta[d]pyrimidin-4-amine]",fold less potent than 1 in MDA-MB-435 cells,[2],about 2.6 fold
"COc1ccc(CN(C)c2nc(C)nc3c2CCC3)cc1 [Compound 12, N-(4-Methoxylphenyl)methyl-N,2-dimethyl-6,7-dihydro-5H-cyclopenta[d]pyrimidin-4-ammonium chloride]",antiproliferative activity (in words),[2],poor MDA-MB-435 inhibitory activity
"COc1ccc([C@H](C)N(C)c2nc(C)nc3c2CCC3)cc1 [Compound 13, N-[1(1S)-(4-Methoxylphenyl)ethyl]-N,2-dimethyl-6,7-dihydro-5H-yclopenta[d]pyrimidin-4-amine]",microtubule depolymerization activity (in words),[4],devoid of any microtubule depolymerization activity
"COc1ccc([C@@H](C)N(C)c2nc(C)nc3c2CCC3)cc1 [Compound 14, N-[1(1R)-(4-Methoxylphenyl)ethyl]-N,2-dimethyl-6,7-dihydro-5H-cyclopenta[d]pyrimidin-4-amine]",microtubule depolymerization activity (in words),[4],devoid of any microtubule depolymerization activity
"N-(4-Methoxycyclohexyl)-N,2-dimethyl-6,7-dihydro-5H-cyclopenta[d]pyrimidin-4-amine [Compound 11]",microtubule depolymerization activity (in words),[4],devoid of any microtubule depolymerization activity
same,EC50,"[4]; read-out: EC50 in A-10 cells, microtubule depolymerizing activity",> 10000 nM
